Laboratory results published in US7465581B2, “ANKTM1, a cold-activated TRP-like channel expressed in nociceptive neurons” (The Scripps Research Institute, priority 2002, dated 2008).
“Also recorded” adds a separate entry of the source.

Assays:
ANKTM1 = target: T1, ANKTM1 (Mus musculus, UniProt Q8BLA8); test: Intracellular calcium imaging (Fura-2) of ANKTM1-expressing CHO cells; type: cell-based, murine; conditions: for activation of ANKTM1-expressing cells by compound: rise in intracellular calcium, 340/380 ratio, FIG. 4B
T1 construct: pcDNA5FRT/TO containing full-length murine ANKTM1; expressed in transfected cells; host or cells: tetracycline-inducible CHO-K1/FRT cells (Flp-In)
Method: Nevertheless, since ANKTM1 bears similarities to TRP-like channels expressed in sensory neurons, tests were conducted to determine activation of ANKTM1 by various sensory stimuli. To this end, a series of tests were conducted using full-length murine ANKTM1 stably transfected in Chinese Hamster Ovary (CHO) cells containing FRT sites (CHO-K1/FRT) under control of a tetracycline (Tet)-inducible promoter via Flp recombinase mediated recombination. To circumvent this problem, cell lines were generated in which ANKTM1 expression could be controlled. Tetracycline-inducible CHO-K1/FRT cells lines were generated by transfecting the CHO Flp-In host cell line with pcDNA6/TR according to manufacturer's instructions (Invitrogen, San Diego, Calif.) and selected in 5 μg/mL Blasticidin. Clones stably expressing the tetracycline repressor identified by blasticidin resistance were transiently transfected with a control plasmid containing the CAT gene and selected based on high levels of CAT expression after treatment with tetracycline. The gene expression vector; pcDNA5FRT/TO containing full-length murine ANKTM1 and the Flp recombinase expression plasmid pOG44 were co-transfected into the tetracycline-inducible CHO-K1/FRT cell line and selected via Hygromycin resistance (200 μg/ml). Induction of ANKTM1 was accomplished by treating CHO cells with 1-2 μg/mL tetracycline (Tet) 5-24 hours before experiments. Calcium imaging experiments were performed essentially as described (Peier et al., 2002a, supra). Briefly, cells were plated on glass coverslips 24-48 hours prior to imaging experiments. Cells were washed in HEPES buffeted saline solution (2 mM Ca^2+), loaded with Fura-2 acetoxymethyl ester ([…]), 1.5 mM pluronic acid (Molecular Probes, Eugene, Oreg.) and incubated for 1 hour at room temperature in the dark. Coverslips were placed in laminar flow chamber (Warner Instrument Corp., Hamden, Conn.) and perfused with HEPES buffered saline (2 mM Ca^2+) flowing through small-diameter tubing at the inlet of the chamber. Perfusion rate was approximately 2 ml/min and was stopped and started via a solenoid switch (Warner Instrument Corp., Hamden, Conn. Perfusate temperature was controlled by a Peltier device and monitored via miniature thermocouple at the inlet of the chamber. Heated (up to 52° C.), chilled (down to 9° C., the limit of our system), and room temperature buffer was delivered through the same application tubing at the inlet of the chamber. Alternatively, in experiments where the compounds menthol (Sigma, St. Louis, Mo.]), capsaicin (Fluka, Buchs, Switzerland) and Icilin (Tocris Woodson,) were applied, cells were plated on 24-well tissue culture plates and loaded with Fura-2. Compounds were delivered with a 3 cc syringe during a period of ten seconds. Images of Fura-2 loaded cells with the excitation wavelength alternating between 340 nm and 380 nm were captured with a cooled […] camera. The ratio of fluorescence intensity of the two wavelengths of groups of 30-50 cells in each experiment was analyzed using MetaFluor (Universal Imaging Corp). Experiments were performed in triplicate. Unless otherwise indicated, graphs represent averaged responses of 20-40 cells from representative experiments. For direct comparison of results from different experiments, values were normalized to baseline of the ratio 340/380. For ANKTM1 and TRPM8 threshold experiments, the threshold temperature of activation of 60-100 cells each from three replicate experiments was analyzed. Threshold of activation was defined as 20% above baseline. Hanks Balanced Salt Solution (HBSS) and HEPES buffers were obtained from GibcoBRL.

TRPV1 [1] = target: T2, TRPV1 (Rattus norvegicus, UniProt O35433); test: Intracellular calcium imaging (Fura-2) of TRPV1-expressing CHO cells; type: cell-based; conditions: rise in intracellular calcium, 340/380 ratio, FIG. 4B
T2 construct: expressed in transfected cells; host or cells: CHO cells
Method: Calcium imaging experiments were performed essentially as described (Peier et al., 2002a, supra). Briefly, cells were plated on glass coverslips 24-48 hours prior to imaging experiments. Cells were washed in HEPES buffeted saline solution (2 mM Ca^2+), loaded with Fura-2 acetoxymethyl ester ([…]), 1.5 mM pluronic acid (Molecular Probes, Eugene, Oreg.) and incubated for 1 hour at room temperature in the dark. Coverslips were placed in laminar flow chamber (Warner Instrument Corp., Hamden, Conn.) and perfused with HEPES buffered saline (2 mM Ca^2+) flowing through small-diameter tubing at the inlet of the chamber. Perfusion rate was approximately 2 ml/min and was stopped and started via a solenoid switch (Warner Instrument Corp., Hamden, Conn. Perfusate temperature was controlled by a Peltier device and monitored via miniature thermocouple at the inlet of the chamber. Heated (up to 52° C.), chilled (down to 9° C., the limit of our system), and room temperature buffer was delivered through the same application tubing at the inlet of the chamber. Alternatively, in experiments where the compounds menthol (Sigma, St. Louis, Mo.]), capsaicin (Fluka, Buchs, Switzerland) and Icilin (Tocris Woodson,) were applied, cells were plated on 24-well tissue culture plates and loaded with Fura-2. Compounds were delivered with a 3 cc syringe during a period of ten seconds. […]

TRPM8 [2] = target: T3, TRPM8 (Mus musculus, UniProt Q8R4D5); test: Intracellular calcium imaging (Fura-2) of TRPM8-expressing CHO cells; type: cell-based, murine
T3 construct: expressed in transfected cells; host or cells: CHO-K1/FRT cells
Method: CHO-K1/FRT cells were stably transfected with full-length murine ANKTM1 in the pcDNA5/FRT vector using Lipofectamine (Invitrogen) according to the manufacturer's protocol. Transfected cells were selected in growth medium containing Hygromycin (200 μg/mL). Northern blot analysis identified stable clones expressing ANKTM1 mRNA. The generation of stable murine TRPM8-expressing CHO-K1/FRT cells has been previously described (Peier et al, 2002). ANKTM1-expressing stable CHO-K1/FRT lines appeared unhealthy (membrane blebbing, cytoplasmic granulations) in culture, and after several passages, a loss of ANTKM1 expression was observed. Previous investigators have also claimed difficulty generating stable cell lines expressing human ANKTM1.
Calcium imaging experiments were performed essentially as described (Peier et al., 2002a, supra). Briefly, cells were plated on glass coverslips 24-48 hours prior to imaging experiments. […]
Images of Fura-2 loaded cells with the excitation wavelength alternating between 340 nm and 380 nm were captured with a cooled […] camera. The ratio of fluorescence intensity of the two wavelengths of groups of 30-50 cells in each experiment was analyzed using MetaFluor (Universal Imaging Corp). […] For ANKTM1 and TRPM8 threshold experiments, the threshold temperature of activation of 60-100 cells each from three replicate experiments was analyzed. […]

TRPM8 [3] = target: T3, TRPM8; conditions: McKemy et al., 2002; cited from earlier work
TRPV1 [4] = target: T2, TRPV1; conditions: general statement; cited from earlier work

T3 sequence (Q8R4D5 whole entry): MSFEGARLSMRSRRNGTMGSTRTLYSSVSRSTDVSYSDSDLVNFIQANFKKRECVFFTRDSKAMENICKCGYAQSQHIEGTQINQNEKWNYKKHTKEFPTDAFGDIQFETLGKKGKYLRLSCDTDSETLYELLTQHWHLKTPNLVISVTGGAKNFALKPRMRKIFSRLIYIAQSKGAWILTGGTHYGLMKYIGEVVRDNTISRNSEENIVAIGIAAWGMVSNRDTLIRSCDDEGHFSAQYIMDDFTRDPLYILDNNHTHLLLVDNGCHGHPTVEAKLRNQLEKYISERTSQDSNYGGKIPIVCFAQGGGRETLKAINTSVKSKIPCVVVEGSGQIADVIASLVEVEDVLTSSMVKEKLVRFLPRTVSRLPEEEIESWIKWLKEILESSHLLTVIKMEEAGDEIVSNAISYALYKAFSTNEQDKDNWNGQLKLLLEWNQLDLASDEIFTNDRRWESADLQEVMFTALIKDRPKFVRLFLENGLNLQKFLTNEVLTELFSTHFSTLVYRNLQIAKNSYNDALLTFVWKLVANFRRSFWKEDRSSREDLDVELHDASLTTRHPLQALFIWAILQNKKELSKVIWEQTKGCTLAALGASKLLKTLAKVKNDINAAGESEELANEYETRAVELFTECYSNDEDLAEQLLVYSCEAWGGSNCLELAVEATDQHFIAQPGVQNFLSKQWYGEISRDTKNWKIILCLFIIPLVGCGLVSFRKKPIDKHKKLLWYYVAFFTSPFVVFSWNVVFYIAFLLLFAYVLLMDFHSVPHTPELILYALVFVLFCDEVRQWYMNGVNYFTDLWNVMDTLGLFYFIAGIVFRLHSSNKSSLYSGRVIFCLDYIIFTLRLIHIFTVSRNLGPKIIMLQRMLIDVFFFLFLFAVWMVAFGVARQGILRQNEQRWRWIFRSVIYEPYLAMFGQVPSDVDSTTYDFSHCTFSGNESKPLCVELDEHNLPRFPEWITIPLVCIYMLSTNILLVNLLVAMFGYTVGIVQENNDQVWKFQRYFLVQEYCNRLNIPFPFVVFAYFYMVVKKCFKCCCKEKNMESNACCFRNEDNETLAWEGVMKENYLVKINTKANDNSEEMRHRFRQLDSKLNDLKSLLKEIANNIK
T1 sequence (Q8BLA8 whole entry): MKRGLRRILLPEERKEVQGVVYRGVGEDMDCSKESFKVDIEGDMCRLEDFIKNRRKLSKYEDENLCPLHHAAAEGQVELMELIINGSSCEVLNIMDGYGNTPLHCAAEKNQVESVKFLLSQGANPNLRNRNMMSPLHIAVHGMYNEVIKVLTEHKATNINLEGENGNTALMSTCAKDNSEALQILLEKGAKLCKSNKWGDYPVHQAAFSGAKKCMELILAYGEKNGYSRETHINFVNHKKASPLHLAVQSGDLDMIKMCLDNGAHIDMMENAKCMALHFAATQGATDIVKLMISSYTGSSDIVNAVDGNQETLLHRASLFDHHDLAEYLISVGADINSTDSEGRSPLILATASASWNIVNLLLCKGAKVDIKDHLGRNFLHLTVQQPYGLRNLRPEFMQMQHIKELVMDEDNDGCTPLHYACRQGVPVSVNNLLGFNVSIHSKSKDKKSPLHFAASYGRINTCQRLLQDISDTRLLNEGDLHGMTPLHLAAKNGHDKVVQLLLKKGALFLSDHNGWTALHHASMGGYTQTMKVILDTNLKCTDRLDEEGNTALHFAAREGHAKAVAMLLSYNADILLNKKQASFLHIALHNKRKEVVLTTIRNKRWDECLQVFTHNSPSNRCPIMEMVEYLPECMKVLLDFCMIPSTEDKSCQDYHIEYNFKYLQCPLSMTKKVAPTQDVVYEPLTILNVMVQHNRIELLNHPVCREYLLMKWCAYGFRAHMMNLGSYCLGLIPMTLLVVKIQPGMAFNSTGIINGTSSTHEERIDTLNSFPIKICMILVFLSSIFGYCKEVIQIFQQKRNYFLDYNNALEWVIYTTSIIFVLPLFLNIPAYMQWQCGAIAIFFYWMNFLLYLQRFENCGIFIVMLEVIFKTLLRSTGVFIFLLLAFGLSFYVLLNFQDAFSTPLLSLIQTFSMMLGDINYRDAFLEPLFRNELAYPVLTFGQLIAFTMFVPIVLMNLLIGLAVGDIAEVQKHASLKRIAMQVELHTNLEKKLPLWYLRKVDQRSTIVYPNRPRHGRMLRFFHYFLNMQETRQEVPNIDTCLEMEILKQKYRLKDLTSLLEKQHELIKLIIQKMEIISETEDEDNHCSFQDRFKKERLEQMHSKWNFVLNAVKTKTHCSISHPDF
T2 sequence (O35433 whole entry): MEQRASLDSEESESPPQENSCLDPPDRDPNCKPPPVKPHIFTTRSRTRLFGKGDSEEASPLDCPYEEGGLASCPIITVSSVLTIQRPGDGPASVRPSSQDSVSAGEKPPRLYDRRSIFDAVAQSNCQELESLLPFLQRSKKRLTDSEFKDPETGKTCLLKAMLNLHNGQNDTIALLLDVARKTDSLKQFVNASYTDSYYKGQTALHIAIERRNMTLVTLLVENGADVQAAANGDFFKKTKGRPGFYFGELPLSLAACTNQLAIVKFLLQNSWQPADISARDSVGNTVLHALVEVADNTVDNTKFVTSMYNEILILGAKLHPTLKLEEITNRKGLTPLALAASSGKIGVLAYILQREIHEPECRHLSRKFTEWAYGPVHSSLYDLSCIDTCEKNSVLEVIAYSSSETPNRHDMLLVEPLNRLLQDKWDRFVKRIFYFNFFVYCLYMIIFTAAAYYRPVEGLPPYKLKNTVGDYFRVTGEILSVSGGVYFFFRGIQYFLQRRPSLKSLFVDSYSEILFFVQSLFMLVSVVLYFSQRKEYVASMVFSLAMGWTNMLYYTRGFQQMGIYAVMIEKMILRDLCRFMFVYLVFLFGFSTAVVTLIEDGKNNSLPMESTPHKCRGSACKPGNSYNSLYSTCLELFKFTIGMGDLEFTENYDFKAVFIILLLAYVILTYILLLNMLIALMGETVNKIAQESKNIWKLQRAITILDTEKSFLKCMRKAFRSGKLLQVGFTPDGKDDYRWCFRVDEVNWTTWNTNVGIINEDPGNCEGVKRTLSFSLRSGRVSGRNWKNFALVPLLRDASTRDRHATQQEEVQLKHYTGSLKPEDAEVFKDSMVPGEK

O=C1NC(c2cccc([N+](=O)[O-])c2)=CCN1c1ccccc1O [Icilin]
delay of response (ANKTM1; ANKTM1 cells): 15 to 60 s
concentration required for ANKTM1 activation compared to TRPM8 (ANKTM1; comparison with TRPM8-expressing cells): Higher concentrations
activation of ANKTM1-expressing cells by compound (ANKTM1): activated
activation of TRPV1-expressing cells by compound (TRPV1 [1]): did not activate
delay of response (TRPM8 [2]; TRPM8 cells): 15 s
activator of TRPM8 (TRPM8 [3]): potent activator

CC1CCC(C(C)C)C(O)C1 (stereo not drawn) [Menthol, menthol]
activation of ANKTM1-expressing cells by compound (ANKTM1): failed to activate

COc1cc(CNC(=O)CCCC/C=C/C(C)C)ccc1O [capsaicin]
activation of ANKTM1-expressing cells by compound (ANKTM1): did not activate
activation of TRPM8-expressing cells by compound (TRPM8 [2]; rise in intracellular calcium, 340/380 ratio, FIG. 4B): did not activate
activator of TRPV1 (TRPV1 [4]): potent activator

N.N.N.N.N.N.N.N.N.N.N.N.N.N.[Cl-].[Cl-].[Cl-].[Cl-].[Cl-].[Cl-].[O-2].[O-2].[Ru+3].[Ru+3].[Ru+4] [ruthenium red]
block of cold responses by ANKTM1 (ANKTM1; 5 μM ruthenium red, pre-incubation or present during cooling, ANKTM1-expressing CHO cells, not entirely recovered after ten minute washout): eliminates cold-evoked responses; also recorded: completely blocked
ANKTM1-containing cells with complete block of the cold response (ANKTM1; 1 μm ruthenium red, multiple experiments): 90%
